From US20170015626A1, “TWO-PHOTON-ABSORBING COMPOUND” (OTSUKA ELECTRONICS CO., LTD., priority 2014, published 2017)

System: Hek293 cells
Assay: Fluorescence staining experiment on cells, observed by two-photon excitation fluorescence microscopy
Format: cell-based, Human
Conditions: for emission of a red fluorescence from the stained cells by two-photon excitation fluorescence microscopy: Hek293 cells stained at 1 μmol dm^−3 for 12 hours, band pass filter central wavelength 650 nm; for fluorescence staining of HeK293 cells: final concentration 1 μmol dm^−3, final DMSO 0.1% (v/v), incubated for 12 hours
Protocol: Human embryonic kidney cells, namely, Hek293 cells were used as model cells for staining. The Hek293 cells were cultured in Dulbecco's Modified Eagle's Medium (DMEM) containing 10% (v/v) fetal bovine serum and 1% (v/v) […] and streptomycin under conditions of 37° C. and 5% CO2.
For preparation of microscopic observation, Hek293 cells were subcultured on a 35-mm glass-based dish, to result in a cell density of 1×10^5 cells/dish. 24 hours after the subculture, adhesion of the cells to the dish was confirmed by microscopic observation. The medium was removed from the dish, and the resulting cells were then washed with a phosphate buffered saline (PBS) twice. 2 mL of DMEM medium not containing phenol red (final concentration of PY: 1 μmol dm^−3, final DMSO concentration: 0.1% (v/v)), to which 2 μL of dimethyl sulfoxide (DMSO) solution of the 1×10^−3 mol/dm^−3 naphthalene derivative (I), anthracene derivative (II) or pyrene derivative (III) had been added, was placed in the dish, and it was then incubated for 12 hours for staining. Immediately before microscopic observation, the medium containing the pigment was removed from the dish, and PBS was then used to wash the cells twice. After that, 2 mL of the DMEM medium not containing phenol red was added to the dish.
A two-photon excitation fluorescence microscope was produced using Optical Block (Hamamatsu Photonics K. K.). As a light source, Femtosecond titanium-sapphire laser (Mira900, Coherent) was used. A mirror unit equipped with a Galvano scanner for scanning a focal point, a short-pass dichroic mirror (FF750-SDi02-25×36, Semrock) having a cutoff wavelength at 750 nm, and a band pass filter (FF01-650/60-25, Semrock) having a central wavelength at 650 nm was inserted into the optical system. For detection of fluorescence, a photomultiplier tube (R928, Hamamatsu Photonics K. K.) was used, and DC was detected at an applied voltage of 1000 V, through a preamplifier (5 MHz)-equipped socket. USB-6251 BNC was used as DAQ, and Lab VIEW2011 (National Instruments) was used as a platform of the control program. As a sample stage, KZGO620-G was used, and as objective lens, infinity corrected objective lens with a magnification of 40 and NA of 1.15 was used.

SMILES	emission of a red fluorescence from the stained cells by two-photon excitation fluorescence microscopy	fluorescence staining of HeK293 cells
C[n+]1ccc(/C=C/c2ccc3cc4cc(/C=C/c5cc[n+](C)cc5)ccc4cc3c2)cc1 [anthracene derivative (II)]	emission of a red fluorescence from the aforementioned cells was observed	could achieve the fluorescence staining of HeK293 cells
C[n+]1ccc(/C=C/c2ccc3cc(/C=C/c4cc[n+](C)cc4)ccc3c2)cc1 [naphthalene derivative (I)]	emission of a red fluorescence from the aforementioned cells was observed	could achieve the fluorescence staining of HeK293 cells
CCCCc1cc(C=Cc2cc[n+](C)cc2)c2ccc3c(CCCC)cc(C=Cc4cc[n+](C)cc4)c4ccc1c2c43.[I-].[I-] [pyrene derivative (III)]	emission of a red fluorescence from the aforementioned cells was observed	could achieve the fluorescence staining of HeK293 cells
